The supplement of paper PMC11061612

Legend:
Carboplatin = compound: C1CC(C1)(C(=O)[O-])C(=O)[O-].N.N.[Pt+2] [Carboplatin]; conditions: max 10 µM
Method in brief: (§1)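 Following 24 hours at 37°C and 5% CO2, cancer cell lines in 1536-well plates with 7.5 μl DMEM/F12 or RPMI and 10% FBS were dosed for 72 hours, final DMSO typically being 0.2%. CellTiter-Glo 2.0 luminescence, scaled between blank-well and DMSO-well means, gave the viability readout. Dose responses were fitted to a two-parameter logistic curve with a non-linear mixed effects model, and the single-agent IC50 was derived from this fit.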

Crizotinib = compound: C[C@@H](Oc1cc(-c2cnn(C3CCNCC3)c2)cnc1N)c1c(Cl)ccc(F)c1Cl [Crizotinib]; conditions: max 10 µM
Method in brief: as §1

AZD5363 = compound: C1CN(CCC1(C(=O)N[C@@H](CCO)C2=CC=C(C=C2)Cl)N)C3=NC=NC4=C3C=CN4 [AZD5363]; conditions: max 10 µM
Method in brief: as §1

Taselisib = compound: Cc1nc(-c2cn3c(n2)-c2ccc(-c4cnn(C(C)(C)C(N)=O)c4)cc2OCC3)n(C(C)C)n1 [Taselisib]; conditions: max 10 µM
Method in brief: as §1

AZD5991 = compound: Cc1c2c(nn1C)CSCc1cc(n(C)n1)CSc1cc(c3ccccc3c1)OCCCc1c(C(=O)O)n(C)c3c-2c(Cl)ccc13 [AZD5991]; conditions: max 1 µM
Method in brief: as §1

AZD1775 = compound: C=CCn1c(=O)c2cnc(Nc3ccc(N4CCN(C)CC4)cc3)nc2n1-c1cccc(C(C)(C)O)n1 [AZD1775]; conditions: max 3 µM
Method in brief: as §1

5-Fluorouracil = compound: O=c1[nH]cc(F)c(=O)[nH]1 [5-Fluorouracil]; conditions: max 20 µM
Method in brief: as §1

Selumetinib = compound: Cn1cnc2c(F)c(Nc3ccc(Br)cc3Cl)c(C(=O)NOCCO)cc21 [Selumetinib]; conditions: max 10 µM
Method in brief: as §1

AZD7648 = compound: Cc1cc2ncnn2cc1Nc1ncc2c(n1)n(C1CCOCC1)c(=O)n2C [AZD7648]; conditions: max 10 µM
Method in brief: as §1

Venetoclax = compound: CC1(C)CCC(CN2CCN(c3ccc(C(=O)NS(=O)(=O)c4ccc(NCC5CCOCC5)c([N+](=O)[O-])c4)c(Oc4cnc5[nH]ccc5c4)c3)CC2)=C(c2ccc(Cl)cc2)C1 [Venetoclax]; conditions: max 1 µM
Method in brief: as §1

AZD1390 = compound: CC(C)n1c(=O)n(C)c2cnc3cc(F)c(-c4ccc(OCCCN5CCCCC5)nc4)cc3c21 [AZD1390]; conditions: max 0.3 µM
Method in brief: as §1

Paclitaxel = compound: CC(=O)O[C@H]1C(=O)[C@@]2(C)[C@H]([C@H](OC(=O)c3ccccc3)[C@]3(O)C[C@H](OC(=O)[C@H](O)[C@@H](NC(=O)c4ccccc4)c4ccccc4)C(C)=C1C3(C)C)[C@]1(OC(C)=O)CO[C@@H]1C[C@@H]2O [Paclitaxel]; conditions: max 3 µM
Method in brief: as §1

AZD4320 = compound: CN(CC[C@H](CSC1=CC=CC=C1)NC2=C(C=C(C=C2)S(=O)(=O)NC(=O)C3=CC=C(C=C3)N4CCC(CC4)[C@H](C5=CC=CC=C5C6=CC=C(C=C6)Cl)O)S(=O)(=O)C(F)(F)F)CCO [AZD4320]; conditions: max 1 µM
Method in brief: as §1

Trametinib = compound: CC(=O)Nc1cccc(-n2c(=O)n(C3CC3)c(=O)c3c(Nc4ccc(I)cc4F)n(C)c(=O)c(C)c32)c1 [Trametinib]; conditions: max 1 µM
Method in brief: as §1

Gemcitabine = compound: Nc1ccn([C@@H]2O[C@H](CO)[C@@H](O)C2(F)F)c(=O)n1 [Gemcitabine]; conditions: max 0.3 µM
Method in brief: as §1

Alisertib = compound: COc1cc(Nc2ncc3c(n2)-c2ccc(Cl)cc2C(c2c(F)cccc2OC)=NC3)ccc1C(=O)O [Alisertib]; conditions: max 10 µM
Method in brief: as §1

SN-38 = compound: CCc1c2c(nc3ccc(O)cc13)-c1cc3c(c(=O)n1C2)COC(=O)[C@]3(O)CC [SN-38]; conditions: max 0.3 µM
Method in brief: as §1

Lapatinib = compound: CS(=O)(=O)CCNCc1ccc(-c2ccc3ncnc(Nc4ccc(OCc5cccc(F)c5)c(Cl)c4)c3c2)o1 [Lapatinib]; conditions: max 10 µM
Method in brief: as §1

Gefitinib = compound: COc1cc2ncnc(Nc3ccc(F)c(Cl)c3)c2cc1OCCCN1CCOCC1 [Gefitinib]; conditions: max 10 µM
Method in brief: as §1

Savolitinib = compound: C[C@@H](c1ccc2nccn2c1)n1nnc2ncc(-c3cnn(C)c3)nc21 [Savolitinib]; conditions: max 1 µM
Method in brief: as §1

AZD0156 = compound: CN(C)CCCOc1ccc(-c2ccc3ncc4c(c3c2)n(C2CCOCC2)c(=O)n4C)cn1 [AZD0156]; conditions: max 3 µM
Method in brief: as §1

MK-2206 = compound: NC1(c2ccc(-c3nc4ccn5c(=O)[nH]nc5c4cc3-c3ccccc3)cc2)CCC1 [MK-2206]; conditions: max 10 µM
Method in brief: as §1

Olaparib = compound: O=C(c1cc(Cc2n[nH]c(=O)c3ccccc23)ccc1F)N1CCN(C(=O)C2CC2)CC1 [Olaparib]; conditions: max 10 µM
Method in brief: as §1

SG3199 = compound: CC1=CN2[C@@H](C1)C=NC3=CC(=C(C=C3C2=O)OC)OCCCCCOC4=C(C=C5C(=C4)N=C[C@@H]6CC(=CN6C5=O)C)OC [SG3199]; conditions: max 0.001 µM
Method in brief: as §1

AZD5153 = compound: COc1nnc2ccc(N3CCC(c4ccc(OCCN5CCN(C)C(=O)[C@H]5C)cc4)CC3)nn12 [AZD5153]; conditions: max 1 µM
Method in brief: as §1

Prexasertib = compound: COc1cccc(OCCCN)c1-c1cc(Nc2cnc(C#N)cn2)n[nH]1 [Prexasertib]; conditions: max 1 µM
Method in brief: as §1

[1] = compound: O=C(Nc1ccc2[nH]nc(-c3ccncc3)c2c1)[C@@H]1CCN(CC(=O)N2CCN(c3ccc(-c4ncccn4)cc3)CC2)C1; conditions: max 5 µM
Method in brief: as §1

Doxorubicin = compound: COc1cccc2c1C(=O)c1c(O)c3c(c(O)c1C2=O)C[C@@](O)(C(=O)CO)C[C@@H]3O[C@H]1C[C@H](N)[C@H](O)[C@H](C)O1 [Doxorubicin]; conditions: max 1 µM
Method in brief: as §1

Etoposide = compound: COc1cc([C@@H]2c3cc4c(cc3[C@@H](O[C@@H]3O[C@@H]5CO[C@@H](C)O[C@H]5[C@H](O)[C@H]3O)[C@H]3COC(=O)[C@H]23)OCO4)cc(OC)c1O [Etoposide]; conditions: max 10 µM
Method in brief: as §1

SRA737 = compound: N#Cc1cnc(Nc2cc(NC[C@H]3CNCCO3)c(C(F)(F)F)cn2)cn1 [SRA737]; conditions: max 10 µM
Method in brief: as §1

Dasatinib = compound: CC1=C(C(=CC=C1)Cl)NC(=O)C2=CN=C(S2)NC3=CC(=NC(=N3)C)N4CCN(CC4)CCO [Dasatinib]; conditions: max 2 µM
Method in brief: as §1

AZD8186 = compound: C[C@@H](Nc1cc(F)cc(F)c1)c1cc(C(=O)N(C)C)cc2c(=O)cc(N3CCOCC3)oc12 [AZD8186]; conditions: max 10 µM
Method in brief: as §1

Palbociclib = compound: CC(=O)c1c(C)c2cnc(Nc3ccc(N4CCNCC4)cn3)nc2n(C2CCCC2)c1=O [Palbociclib]; conditions: max 10 µM
Method in brief: as §1

AZD2811 = compound: CCN(CCO)CCCOc1ccc2c(Nc3cc(CC(=O)Nc4cccc(F)c4)[nH]n3)ncnc2c1 [AZD2811]; conditions: max 1 µM
Method in brief: as §1

AZD6738 = compound: C[C@@H]1COCCN1C2=NC(=NC(=C2)C3(CC3)[S@](=N)(=O)C)C4=C5C=CNC5=NC=C4 [AZD6738]; conditions: max 10 µM
Method in brief: as §1

Cell Line	IC50, cell viability 72 h (Carboplatin) [nM]	IC50, cell viability 72 h (Crizotinib) [nM]	IC50, cell viability 72 h (AZD5363) [nM]	IC50, cell viability 72 h (Taselisib) [nM]	IC50, cell viability 72 h (AZD5991) [nM]	IC50, cell viability 72 h (AZD1775) [nM]	IC50, cell viability 72 h (5-Fluorouracil) [nM]	IC50, cell viability 72 h (Selumetinib) [nM]	IC50, cell viability 72 h (AZD7648) [nM]	IC50, cell viability 72 h (Venetoclax) [nM]	IC50, cell viability 72 h (AZD1390) [nM]	IC50, cell viability 72 h (Paclitaxel) [nM]	IC50, cell viability 72 h (AZD4320) [nM]	IC50, cell viability 72 h (Trametinib) [nM]	IC50, cell viability 72 h (Gemcitabine) [nM]	IC50, cell viability 72 h (Alisertib) [nM]	IC50, cell viability 72 h (SN-38) [nM]	IC50, cell viability 72 h (Lapatinib) [nM]	IC50, cell viability 72 h (Gefitinib) [nM]	IC50, cell viability 72 h (Savolitinib) [nM]	IC50, cell viability 72 h (AZD0156) [nM]	IC50, cell viability 72 h (MK-2206) [nM]	IC50, cell viability 72 h (Olaparib) [nM]	IC50, cell viability 72 h (SG3199) [nM]	IC50, cell viability 72 h (AZD5153) [nM]	IC50, cell viability 72 h (Prexasertib) [nM]	IC50, cell viability 72 h [1] [nM]	IC50, cell viability 72 h (Doxorubicin) [nM]	IC50, cell viability 72 h (Etoposide) [nM]	IC50, cell viability 72 h (SRA737) [nM]	IC50, cell viability 72 h (Dasatinib) [nM]	IC50, cell viability 72 h (AZD8186) [nM]	IC50, cell viability 72 h (Palbociclib) [nM]	IC50, cell viability 72 h (AZD2811) [nM]	IC50, cell viability 72 h (AZD6738) [nM]
LNZTA3WT4 (Low Grade Glioma)	> 10000	> 10000	> 10000	> 10000	> 1000	624	> 20000	> 10000	> 10000	> 1000	> 300	141	> 1000	> 1000	99.7	> 10000	269	> 10000	> 10000	> 1000	> 3000	> 10000	> 10000	> 1	> 1000	18.7	> 5000	> 1000	> 10000	4630	> 2000	> 10000	> 10000	> 1000	4500
LOXIMVI (Melanoma)	> 10000	6350	> 10000	2170	> 1000	1370	> 20000	1500	> 10000	> 1000	> 300	26.8	> 1000	17.8	58.9	5350	28.9	> 10000	> 10000	> 1000	> 3000	> 10000	> 10000	> 1	111	89.6	145	294	> 10000	> 10000	135	> 10000	9910	> 1000	3270
MPP-89 (Mesothelioma)	> 10000	> 10000	> 10000	> 10000	> 1000	1550	> 20000	> 10000	> 10000	> 1000	> 300	842	> 1000	> 1000	> 300	9370	172	> 10000	> 10000	> 1000	> 3000	> 10000	> 10000	> 1	> 1000	67.2	> 5000	> 1000	> 10000	> 10000	558	> 10000	> 10000	> 1000	> 10000
NCI-H524 (Small Cell Lung Carcinoma)	> 10000	2550	> 10000	8080	> 1000	974	> 20000	> 10000	> 10000	> 1000	> 300	3.26	415	> 1000	189	30.5	133	> 10000	> 10000	> 1000	> 3000	> 10000	> 10000	> 1	278	23.6	> 5000	> 1000	> 10000	> 10000	> 2000	> 10000	> 10000	22.3	4370
OVCAR-5 (Ovarian Carcinoma)	> 10000	> 10000	> 10000	2070	> 1000	> 3000	> 20000	2150	> 10000	> 1000	> 300	120	> 1000	89.6	> 300	> 10000	> 300	> 10000	> 10000	> 1000	> 3000	> 10000	> 10000	> 1	677	40.5	1660	> 1000	> 10000	> 10000	381	> 10000	> 10000	> 1000	5140
